Key:
S. sclerotiorum = experiment: In vitro mycelium growth inhibition test; type: cell-based; conditions: Sclerotinia sclerotiorum; 50 μg/mL; mycelial growth; mean ± SD of three replicates; read-out: Inhibition Rate (%) S. sclerotiorum
Description: (§1) B. cinerea and S. scleotiorum were kindly provided by the Department of Pesticides, College of Plant Protection, Nanjing Agricultural University (Nanjing, China). All compounds were evaluated for mycelium growth inhibition tests against the two plant pathogenic fungi mentioned in previous reports. These two fungi were inoculated on potato dextrose agar (PDA) plates and were grown in biochemical incubators at 25 ± 1 °C for 2–4 days. The new mycelium was used to determine the antifungal activity. The target compounds were dissolved in 100 µL DMF, and they were then added into the PDA media to make the concentration 50 µg/mL. Mycelia dishes of about 5 mm in diameter were cut from the culture medium. Mycelium were picked up with a sterile inoculation needle, and the sample was inoculated in the middle of a PDA plate in a sterile environment. Afterwards, a preliminary screening of fungal activity was performed. […] Each test was carried out three times. The radial growth of the fungal colonies was gauged and recorded when the diameters of the blank control mycelia reached 5.0–5.5 cm. […] The final data were analyzed using SPSS v.25.0 (IBM, New York, NY, USA). The following formula was used to calculate the fungi inhibition rate. Inhibition rate (%) = [(Mycelium diameter of negative control − Mycelium diameter of treatment)/(Mycelium diameter of negative control − 0.5)] × 100%(1)

B. cinerea = experiment: In vitro mycelium growth inhibition test; type: cell-based; conditions: Botrytis cinerea; 50 μg/mL; mycelial growth; mean ± SD of three replicates; read-out: Inhibition Rate (%) B. cinerea
Description: as §1

C. elegans = experiment: microbe, parasite or virus in culture; conditions: 48 h; for mortality at 50 µg/mL / mortality at 200 µg/mL: Caenorhabditis elegans, read-out: Corrected Mortality Rate ± SD (%) C. elegans
Excerpt: (§2) M. incognita (parasitic on tomato plants), A. besseyi (potato dextrose agar–Botrytis cinerea breeding), B. xylophilus (potato dextrose agar–Botrytis cinerea breeding), and C. elegans (nematode growth medium–inactivated Escherichia coli OP50 cultivation) were provided by the Fine Chemical Research and Development Center of Guizhou University (Guizhou, China). The methodology used for the nematocidal bioassays of these target compounds was modified in the light of the conventional methods reported in the previously published literature. The nematicidal activity of the target compounds against four nematodes was determined using 48-well biochemical culture dishes. All of the compounds were dissolved with 100 μL DMF and were diluted with 1% Tween-80 to obtain 200 and 50 μg/mL concentrations for the bioassays. Fosthiazate and tioxazafen were used as positive controls at the same concentrations, and a negative control group was prepared without compounds using the same methodology. An amount of 10 µL of nematode suspension (about 50 nematodes) and 300 µL of the trial solution were added to corresponding hole, and each treatment was set to three repetitions. All of the 48-well plates were placed in a biochemical incubator at 27 °C for dark light culture. […] Corrected mortality (%) = [(mortality of treatment % − mortality of negative control %)/(1 − mortality of negative control %)] × 100%(3)

B. xylophilus = experiment: microbe, parasite or virus in culture; conditions: Bursaphelenchus xylophilus, 48 h, read-out: Corrected Mortality Rate ± SD (%) B. xylophilus
Excerpt: as §2

M. incognita = experiment: microbe, parasite or virus in culture; conditions: Meloidogyne incognita, 48 h, read-out: Corrected Mortality Rate ± SD (%) M. incognita
Excerpt: as §2

A. besseyi = experiment: microbe, parasite or virus in culture; conditions: Aphelenchoides besseyi, 48 h, read-out: Corrected Mortality Rate ± SD (%) A. besseyi
Excerpt: as §2

| Structure (SMILES) | inhibition at 50 µg/mL (S. sclerotiorum) | inhibition at 50 µg/mL (B. cinerea) | mortality at 50 µg/mL (C. elegans) | mortality at 200 µg/mL (C. elegans) | mortality at 50 µg/mL (B. xylophilus) | mortality at 200 µg/mL (B. xylophilus) | mortality at 50 µg/mL (M. incognita) | mortality at 200 µg/mL (M. incognita) | mortality at 50 µg/mL (A. besseyi) | mortality at 200 µg/mL (A. besseyi) | Corrected Mortality Rate ± SD (%) C. elegans (C. elegans; 50 µg/mL) | Corrected Mortality Rate ± SD (%) C. elegans (C. elegans; 200 µg/mL) |
| --- | --- | --- | --- | --- | --- | --- | --- | --- | --- | --- | --- | --- |
| O=C(NCCc1ccccn1)c1nc(-c2ccc(Br)nc2)no1 [Compound F17] | 10.1 ± 1.2% | 27.6 ± 1.4% | 54.2 ± 3.1% | 89.7 ± 1.5% | 0% | 14.1 ± 1.9% | 0% | 33.5 ± 1.4% | 0% | 20.2 ± 1.2% |  |  |
| O=C(NCCc1ncc(C(F)(F)F)cc1Cl)c1nc(-c2ncc(C(F)(F)F)cc2Cl)no1 [Compound F22] | 37.6 ± 1.9% | 45.2 ± 0.9% | 45.7 ± 2.3% | 80.2 ± 1.5% | 0% | 17.1 ± 2.2% | 0% | 18.3 ± 1.7% | 0% | 26.5 ± 2.1% |  |  |
| O=C(NCCc1ccccn1)c1nc(-c2cccs2)no1 [Compound F13, N -(2-(pyridin-2-yl)ethyl)-3-(thiophen-2-yl)-1,2,4-oxadiazole-5-carboxamide] | 41.1 ± 0.1% | 27.3 ± 0.4% | 70.4 ± 2.6% | 100% | 0% | 9.1 ± 1.5% | 0% | 11.6 ± 1.1% | 0% | 21.7 ± 2.4% |  |  |
| O=C(NCCc1ccccn1)c1nc(-c2ncc(C(F)(F)F)cc2Cl)no1 [Compound F21] | 35.1 ± 0.1% | 38.8 ± 0.7% | 32.5 ± 2% | 76.8 ± 0.9% | 0% | 7.1 ± 1.9% | 0% | 23.5 ± 2.4% | 0% | 13 ± 0.5% |  |  |
| c1ccc(-c2noc(-c3cccs3)n2)cc1 [Tioxazafen, tioxazafen, reference compound] |  |  | 90.4 ± 0.7% | 100% | 0% | 13.5 ± 1.2% | 12.6 ± 3.2% | 23.9 ± 3.3% | 8.8 ± 2.4% | 61.4 ± 1.7% |  |  |
| Cc1ccc(-c2noc(C(=O)Nc3ccc(Cl)cc3Cl)n2)cc1 [Compound F8, N-(2,4-dichlorophenyl)-3-(p-tolyl)-1,2,4-oxadiazole-5-carboxamide] | 21.1 ± 1.7% | 22.7 ± 1.3% | 47.6 ± 1.7% | 77.6 ± 1.2% | 0% | 18.1 ± 1.2% | 4.9 ± 2.1% | 23.9 ± 3.3% | 0% | 6.1 ± 1.2% |  |  |
| O=C(NCc1ccc(F)cc1F)c1nc(-c2ccc(Br)nc2)no1 [Compound F19] | 35.8 ± 0.8% | 42.2 ± 0.2% | 64.1 ± 1.2% | 93.5 ± 2.6% | 0% | 30.7 ± 1.1% | 7.9 ± 1.2% | 30.7 ± 1.1% | 0% | 23.5 ± 2.6% |  |  |
| Cc1ccc(-c2noc(C(=O)NCCc3ncc(C(F)(F)F)cc3Cl)n2)cc1 [Compound F6, N-(2-(3-chloro-5-(trifluoromethyl)pyridin-2-yl)ethyl)-3-(p-tolyl)-1,2,4-oxadiazole-5-carboxamide] | 56 ± 1.4% | 22.9 ± 1.1% | 100% | 100% | 0% | 11.6 ± 2.1% | 7.9 ± 2.2% | 44.6 ± 3.8% | 0% | 29.4 ± 2.3% | 100.0% | 100.0% |
| O=C(NCc1ccc(F)cc1F)c1nc(-c2ncc(C(F)(F)F)cc2Cl)no1 [Compound F23] | 34.6 ± 0.1% | 41.5 ± 0.5% | 10.6 ± 1.2% | 27.6 ± 1.2% | 0% | 20.3 ± 1.4% | 0% | 19.1 ± 2.2% | 0% | 21.5 ± 2.2% |  |  |

From paper PMC8836147, “Design, Synthesis and Antifungal/Nematicidal Activity of Novel 1,2,4-Oxadiazole Derivatives Containing Amide Fragments” (International Journal of Molecular Sciences, 2022)
